Measured values reported in US20230131899A1, “INHIBITORS OF MICROBIALLY INDUCED AMYLOID” (Axial Therapeutics, Inc., priority 2020, published 2023).
Where two headings read alike, the source gives them in different places.

Columns and labels:
E. coli CsgA = molecular target: T1, E. coli CsgA (Escherichia coli, UniProt P28307); experiment: In vitro ThioflavinT assay of CsgA aggregation (CsgA ThT Assay); assay type: biochemical; details: for remaining activity at 25 µM: compound 25 μM; for remaining activity at 100 µM: compound 100 μM
T1 construct: made in house; host or cells: E. coli NEB 3016 slyD::kan, pET11d
T1 sequence (P28307 23-151): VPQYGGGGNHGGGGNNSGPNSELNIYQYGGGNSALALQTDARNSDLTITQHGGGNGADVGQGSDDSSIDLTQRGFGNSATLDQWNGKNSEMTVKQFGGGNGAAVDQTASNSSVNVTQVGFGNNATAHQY
Procedure, shortened: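 Purified C-terminal His-tagged CsgA, monomerised by desalting and 30-kDa filtration, at 2-20 μM with 20-40 μM ThT in 50 mM potassium phosphate pH 7.3, 1% DMSO, compounds 3.125-200 uM; room temperature, fluorescence (ex 438/em 495 nm) read every 15 min. Background-subtracted signal expressed as percent inhibition versus vehicle at 6-6.5 or 8-9 h, or as percent control AUC.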

[1] = test system: CsgA gene expression (csgBAC promoter-GFP reporter) in E. coli UTI89; experiment: In vitro live cell fluorescent reporter assay of CsgA transcription (Reporter Assay); assay type: cell-based; details: Escherichia coli
Procedure, shortened: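 Compounds at 0.14–100 μM (1% DMSO final) incubated 20 h at 27 °C in YESCA broth with UTI89 carrying a single-copy GFP reporter under the csgBAC intergenic promoter region, inoculum OD600 0.003. Fluorescence normalized to vehicle wells gave IC50 and 50%-of-vehicle concentration; OD600 reduction >10% flagged growth impact.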

[2] = read-out: CsgA ThT Assay (10 μM CsgA) % Control AUC at 1005 minutes, 25 μM (activity range), CsgA 10 μM, black plates, 1005 minutes, class symbol
[3] = read-out: CsgA ThT Assay (10 μM CsgA) % Control AUC at 1005 minutes, 25 μM, mean AUC as % of DMSO control, CsgA 10 μM, black plates, 1005 minutes
[4] = read-out: CsgA ThT Assay (10 μM CsgA) % Control AUC at 1005 minutes, 100 μM (activity range), CsgA 10 μM, black plates, 1005 minutes, class symbol
[5] = read-out: CsgA ThT Assay (10 μM CsgA) % Control AUC at 1005 minutes, 100 μM, mean AUC as % of DMSO control, CsgA 10 μM, black plates, 1005 minutes
[6] = read-out: Reporter Assay Abs IC50 (activity range), median Abs IC50 in the CsgA reporter assay, class symbol
[7] = read-out: Reporter Assay Abs IC50 (μM), median Abs IC50 in the CsgA reporter assay, N/A = maximum expression reduction is <50% of control
[8] = read-out: CsgA ThT Assay (2 μM CsgA) % Control Bmax 25 μM, activity range, class symbol, CsgA 2 μM, white plates
[9] = read-out: CsgA ThT Assay (2 μM CsgA) % Control Bmax 25 μM, mean Bmax as percentage of DMSO control, CsgA 2 μM, white plates
[10] = read-out: CsgA ThT Assay (2 μM CsgA) % Control Bmax 100 μM, activity range, class symbol, CsgA 2 μM, white plates
[11] = read-out: CsgA ThT Assay (2 μM CsgA) % Control Bmax 100 μM, mean Bmax as percentage of DMSO control, CsgA 2 μM, white plates
[12] = read-out: Reporter Assay Abs IC50, activity range, class symbol

Row | Structure (SMILES) | remaining activity at 25 µM (E. coli CsgA; [2]) | remaining activity at 25 µM (E. coli CsgA; [3]) | remaining activity at 100 µM (E. coli CsgA; [4]) | remaining activity at 100 µM (E. coli CsgA; [5]) | IC50 [1, 6] | IC50 [1, 7] | remaining activity at 25 µM (E. coli CsgA; [8]) | remaining activity at 25 µM (E. coli CsgA; [9]) | remaining activity at 100 µM (E. coli CsgA; [10]) | remaining activity at 100 µM (E. coli CsgA; [11]) | IC50 [1, 12]
1 | CCN1CC(C(=O)O)n2c(c(-c3cccc(C(F)(F)F)c3)c(Cc3cccc4ccccc34)c(N)c2=O)S1(=O)=O (stereo not drawn) [Compound 092, 7-amino-2-ethyl-8-(naphthalen-1-ylmethyl)-6-oxo-9-(3-(trifluoromethyl)phenyl)-3,4-dihydro-2H,6H-pyrido[1,2-e][1,2,5]thiadiazine-4-carboxylic acid 1,1-dioxide] | > 60% | 64% | 31 to 60% | 52% | > 10 µM | 18.8 µM | – | – | – | – | –
2 | CCCc1c(Cc2cccc3ccccc23)c(-c2cccc(C(F)(F)F)c2)c2n(c1=O)C(C(=O)O)CN(C)S2(=O)=O (stereo not drawn) [Compound 090, 2-methyl-8-(naphthalen-1-ylmethyl)-6-oxo-7-propyl-9-(3-(trifluoromethyl)phenyl)-3,4-dihydro-2H,6H-pyrido[1,2-e][1,2,5]thiadiazine-4-carboxylic acid 1,1-dioxide] | 31 to 60% | 54% | 11 to 31% | 30% | 4.6 to 10 µM | 5.9 µM | – | – | – | – | –
3 | CCCCCN1CC(C(=O)O)n2c(c(-c3cccc(C(F)(F)F)c3)c(Cc3cccc4ccccc34)c(N)c2=O)S1(=O)=O (stereo not drawn) [Compound 094, 7-amino-8-(naphthalen-1-ylmethyl)-6-oxo-2-pentyl-9-(3-(trifluoromethyl)phenyl)-3,4-dihydro-2H,6H-pyrido[1,2-e][1,2,5]thiadiazine-4-carboxylic acid 1,1-dioxide] | 31 to 60% | 51% | 11 to 31% | 30% | 1.3 to 4.5 µM | 1.9 µM | – | – | – | – | –
4 | O=C(O)CC1CS(=O)(=O)c2c(-c3cccc(C(F)(F)F)c3)c(Cc3cccc4ccccc34)cc(=O)n21 (stereo not drawn) [Compound 130, 2-(7-(naphthalen-1-ylmethyl)-1,1-dioxido-5-oxo-8-(3-(trifluoromethyl)phenyl)-2,3-dihydro-5H-thiazolo[3,2-a]pyridin-3-yl)acetic acid] | 31 to 60% | 49% | 11 to 31% | 15% | > 10 µM | 14.8 µM | – | – | – | – | –
5 | CN1CC(C(=O)O)n2c(c(-c3cccc(C(F)(F)F)c3)c(Cc3cccc4ccccc34)c(C(O)CO)c2=O)S1(=O)=O (stereo not drawn) [Compound 101, 7-(1,2-dihydroxyethyl)-2-methyl-8-(naphthalen-1-ylmethyl)-6-oxo-9-(3-(trifluoromethyl)phenyl)-3,4-dihydro-2H,6H-pyrido[1,2-e][1,2,5]thiadiazine-4-carboxylic acid 1,1-dioxide] | > 60% | 61% | 11 to 31% | 15% | > 10 µM | 29 µM | – | – | – | – | –
6 | CCCN1CC(C(=O)O)n2c(c(-c3cccc(C(F)(F)F)c3)c(Cc3cccc4ccccc34)c(CC)c2=O)S1(=O)=O (stereo not drawn) [Compound 117, 7-ethyl-8-(naphthalen-1-ylmethyl)-6-oxo-2-propyl-9-(3-(trifluoromethyl)phenyl)-3,4-dihydro-2H,6H-pyrido[1,2-e][1,2,5]thiadiazine-4-carboxylic acid 1,1-dioxide] | 31 to 60% | 32% | 11 to 31% | 22% | 4.6 to 10 µM | 5.9 µM | – | – | – | – | –
7 | O=C(O)C1CN(Cc2ccccc2)c2c(-c3cccc(C(F)(F)F)c3)c(Cc3cccc4ccncc34)c(Cl)c(=O)n21 (stereo not drawn) [Compound 205, 1-benzyl-6-chloro-7-(isoquinolin-8-ylmethyl)-5-oxo-8-(3-(trifluoromethyl)phenyl)-1,2,3,5-tetrahydroimidazo[1,2-a]pyridine-3-carboxylic acid] | – | – | – | – | – | 22.4 µM | > 60% | 69% | 31 to 60% | 44% | > 10 µM
8 | O=C(c1nc(=O)n2c(c1-c1cccc(C(F)(F)F)c1)SCC2C(=O)O)c1cccc2ccccc12 (stereo not drawn) [Compound 055, 7-(1-naphthoyl)-5-oxo-8-(3-(trifluoromethyl)phenyl)-2,3-dihydro-5H-thiazolo[3,2-c]pyrimidine-3-carboxylic acid] | > 60% | 73% | 11 to 31% | 17% | > 10 µM | 11 µM | – | – | – | – | –
9 | Nc1c(Cc2cccc3ccccc23)c(-c2cccc(C(F)(F)F)c2)c2n(c1=O)C(C(=O)O)CN(CCCO)S2(=O)=O (stereo not drawn) [Compound 097, 7-amino-2-(3-hydroxypropyl)-8-(naphthalen-1-ylmethyl)-6-oxo-9-(3-(trifluoromethyl)phenyl)-3,4-dihydro-2H,6H-pyrido[1,2-e][1,2,5]thiadiazine-4-carboxylic acid 1,1-dioxide] | > 60% | 63% | 31 to 60% | 41% | > 10 µM | 18.4 µM | – | – | – | – | –
10 | CCCN1CC(C(=O)O)n2c(c(-c3cccc(C(F)(F)F)c3)c(Cc3cccc4ccccc34)c(OCCc3ccccc3)c2=O)S1(=O)=O (stereo not drawn) [Compound 001, 8-(naphthalen-1-ylmethyl)-6-oxo-7-phenethoxy-2-propyl-9-(3-(trifluoromethyl)phenyl)-3,4-dihydro-2H,6H-pyrido[1,2-e][1,2,5]thiadiazine-4-carboxylic acid 1,1-dioxide] | 31 to 60% | 36% | 31 to 60% | 35% | 1.3 to 4.5 µM | 1.5 µM | – | – | – | – | –
11 | O=C(O)C1CS(=O)(=O)c2c(-c3cccc(C(F)(F)F)c3)c(C(F)(F)c3cccc4ccccc34)cc(=O)n21 (stereo not drawn) [Compound 081, 7-(difluoro(naphthalen-1-yl)methyl)-5-oxo-8-(3-(trifluoromethyl)phenyl)-2,3-dihydro-5H-thiazolo[3,2-a]pyridine-3-carboxylic acid 1,1-dioxide] | 11 to 31% | 25% | 11 to 31% | 24% | > 10 µM | 16.5 µM | – | – | – | – | –
12 | O=C(O)C1CN(CCCCCO)S(=O)(=O)c2c(-c3cccc(C(F)(F)F)c3)c(Cc3cccc4ccccc34)cc(=O)n21 (stereo not drawn) [Compound 086, 2-(5-hydroxypentyl)-8-(naphthalen-1-ylmethyl)-6-oxo-9-(3-(trifluoromethyl)phenyl)-3,4-dihydro-2H,6H-pyrido[1,2-e][1,2,5]thiadiazine-4-carboxylic acid 1,1-dioxide] | 31 to 60% | 33% | 11 to 31% | 20% | 4.6 to 10 µM | 9.6 µM | – | – | – | – | –
13 | O=c1cc(Cc2cccc3ccccc23)c(-c2cccc(C(F)(F)F)c2)c2n1C(CO)CS2 (stereo not drawn) [Compound 118, 3-(hydroxymethyl)-7-(naphthalen-1-ylmethyl)-8-(3-(trifluoromethyl)phenyl)-2,3-dihydro-5H-thiazolo[3,2-a]pyridin-5-one] | > 60% | 92% | > 60% | 76% | 1.3 to 4.5 µM | 3.9 µM | – | – | – | – | –
14 | Nc1c(Cc2cccc3ccccc23)c(-c2cccc(C(F)(F)F)c2)c2n(c1=O)C(C(=O)O)CO2 (stereo not drawn) [Compound 069, 6-amino-7-(naphthalen-1-ylmethyl)-5-oxo-8-(3-(trifluoromethyl)phenyl)-2,3-dihydro-5H-oxazolo[3,2-a]pyridine-3-carboxylic acid] | 31 to 60% | 58% | 11 to 31% | 14% | 4.6 to 10 µM | 5.7 µM | – | – | – | – | –
15 | N#Cc1c(Cc2cccc3ccccc23)c(-c2cccc(C(F)(F)F)c2)c2n(c1=O)C(C(=O)O)CN2Cc1ccccc1 (stereo not drawn) [Compound 185, 1-benzyl-6-cyano-7-(naphthalen-1-ylmethyl)-5-oxo-8-(3-(trifluoromethyl)phenyl)-1,2,3,5-tetrahydroimidazo[1,2-a]pyridine-3-carboxylic acid] | – | – | – | – | – | 1.8 µM | > 60% | 69% | > 60% | 91% | 1.3 to 4.5 µM
